From article PMC4746629, “Small-molecule inhibition of PTPRZ reduces tumor growth in a rat model of glioblastoma” (Scientific Reports, 2016) come the findings set out here.

“Also recorded” adds a separate entry of the source.

One data set has as its target PTPRZ-ICR N1758D mutant (Homo sapiens, UniProt P23471, DEL1723-1729/N1758D). Kind of data set: Inhibitor sensitivity of site-directed mutant, pCAP assay. The settings on record: compounds 10 μM, 20 μM pCAP-GIT1_549–556.
Data set [1] deals with T1, PTPRZ-ICR (Homo sapiens, UniProt P23471, DEL1723-1729). Kind of data set: Mass spectrometry under non-denaturing conditions (native MS) binding.
T1 sequence (P23471 1698-2308 isoform P23471-2 limits assumed, stated change not applied): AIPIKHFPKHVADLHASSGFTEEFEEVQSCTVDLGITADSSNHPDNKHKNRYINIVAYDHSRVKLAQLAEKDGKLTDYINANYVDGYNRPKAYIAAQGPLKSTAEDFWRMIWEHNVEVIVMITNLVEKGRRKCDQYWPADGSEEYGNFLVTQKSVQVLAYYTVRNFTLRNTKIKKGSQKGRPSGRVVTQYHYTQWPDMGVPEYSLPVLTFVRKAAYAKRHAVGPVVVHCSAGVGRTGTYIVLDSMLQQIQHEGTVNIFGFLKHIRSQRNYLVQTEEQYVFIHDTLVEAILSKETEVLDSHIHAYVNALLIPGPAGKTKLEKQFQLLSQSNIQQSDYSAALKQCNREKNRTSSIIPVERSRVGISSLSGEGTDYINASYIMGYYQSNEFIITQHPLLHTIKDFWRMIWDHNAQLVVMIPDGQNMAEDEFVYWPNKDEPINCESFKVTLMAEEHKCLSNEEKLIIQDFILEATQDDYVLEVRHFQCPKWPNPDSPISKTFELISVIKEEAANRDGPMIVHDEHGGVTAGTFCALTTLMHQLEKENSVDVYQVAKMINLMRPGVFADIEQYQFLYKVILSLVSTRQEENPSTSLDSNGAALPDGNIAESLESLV
Description: PTPRZ-ICR was mixed with the indicated compounds, and their binding to PTPRZ-ICR was monitored by MS under non-denaturing conditions. […] The concentrations of PTPRZ-ICR proteins used for the assay were estimated to be approximately 0.2 to 0.3 μM by SDS-PAGE followed by CBB staining.
Ten microliter aliquots were mixed with equal volumes of each compound solution, and the samples were immediately analyzed by nanoflow electrospray using in-house made gold-coated glass capillaries (~2 μl sample was loaded for each analysis). […] Spectra were calibrated using 1 mg/ml cesium iodide, and analyzed by Mass Lynx software (Waters).
The target in data set [2] is T1, PTPRZ-ICR. The experiment in a line: In vitro dephosphorylation assay, single concentration of SCB4380 analogues. The settings on record: compound 10 μM, substrate 20 μM, human PTPRZ-ICR 0.1 nM. On the set-up: PTPRZ (ICR, amino acid residues 1698-2315); FLAG (followed by HRV 3C site) (N, cleaved yes); made in house; host or cells: silkworm (Bombyx mori) pupae, BmNPV baculovirus. It is filed as biochemical. An excerpt:
No significant effects were detected with compounds 7 to 10. TEXT PRINTED IN THE PICTURE: (B) 7: (no inhibition) | (B) 8: (no inhibition) | (B) 9: (no inhibition) | (B) 10: (no inhibition)

The test system of another data set is C6 glioblastoma cells. The experiment in a line: Cell proliferation assay. Type of data set: cell-based, rat. The settings on record: parent C6 cells, liposome delivery.
The next data set addresses PTPRZ-ICR Y1756F mutant (Homo sapiens, UniProt P23471, DEL1723-1729/Y1756F). Kind of data set: Inhibitor sensitivity of site-directed mutant, pCAP assay. The settings on record: compounds 10 μM or vanadate 200 μM, 20 μM pCAP-GIT1_549–556.
Data set [3] is described as follows: Parallel artificial membrane permeability assay (PAMPA). Type of data set: in vitro ADME. (In general: In PAMPA a lipid-coated filter parts donor from acceptor wells.)
Data set [4] in a line: Stability of SCB4380 in C6 cells, time-lapse microscopy after microinjection. It is filed as cell-based, rat. The settings on record: rat; after direct microinjection, time-lapse microscopy; read-out: Average half-life for disappearance of the fluorescent signal in C6 cells.
The next data set relates to C6 cells. The data set is described as above. It is filed as cell-based, rat.
Data set [5] deals with T1, PTPRZ-ICR. The experiment in a line: Isothermal titration calorimetry. Background: In ITC the heat of successive injections is recorded.
Description: Titration isotherm (with error bars). The isotherm was fit to a one-to-one binding model (solid line) using the program SEDPHAT (ref. [48]) with a 1:1 binding model (B). The single dissociation constant and enthalpy change are indicated in the inset. Residuals calculated by subtracting fit values from observed values (C).
The titration sequence included a single 0.4 μl injection followed by 19 injections of 2 μl each at an interval of 120 s between the injections.
The next data set concerns the target PTPRZ (Homo sapiens, UniProt P23471, DEL1723-1729). The experiment in a line: PTP selectivity assay with DiFMUP substrate.
The next data set deals with human PTPRG (Homo sapiens, UniProt P23470). Kind of data set: PTP selectivity assay with DiFMUP substrate.
Chain of human PTPRG (P23470 790-1445): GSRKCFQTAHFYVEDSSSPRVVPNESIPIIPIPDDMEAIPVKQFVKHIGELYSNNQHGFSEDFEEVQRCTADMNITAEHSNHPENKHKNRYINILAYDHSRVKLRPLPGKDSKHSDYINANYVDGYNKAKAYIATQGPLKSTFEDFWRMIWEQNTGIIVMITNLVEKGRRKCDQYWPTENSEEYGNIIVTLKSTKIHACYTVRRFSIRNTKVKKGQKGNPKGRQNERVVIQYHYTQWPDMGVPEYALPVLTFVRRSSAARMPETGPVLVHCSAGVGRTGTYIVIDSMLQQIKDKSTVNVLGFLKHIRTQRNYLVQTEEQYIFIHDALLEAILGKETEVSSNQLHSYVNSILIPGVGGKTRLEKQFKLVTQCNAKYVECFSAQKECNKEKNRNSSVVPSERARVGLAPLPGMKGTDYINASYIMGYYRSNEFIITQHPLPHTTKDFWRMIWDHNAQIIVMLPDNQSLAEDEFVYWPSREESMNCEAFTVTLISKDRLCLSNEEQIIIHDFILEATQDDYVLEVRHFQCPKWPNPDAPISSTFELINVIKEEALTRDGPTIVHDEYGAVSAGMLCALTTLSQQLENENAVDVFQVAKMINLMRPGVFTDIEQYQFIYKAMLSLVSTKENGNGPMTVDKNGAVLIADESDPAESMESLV
A further data set has as its target human PTPRA (Homo sapiens, UniProt P18433). Kind of data set: PTP selectivity assay with DiFMUP substrate.
Another data set concerns the target human PTPRM (Homo sapiens, UniProt P28827). The experiment in a line: PTP selectivity assay with DiFMUP substrate.
The target of the next data set is T2, human PTPRS (Homo sapiens, UniProt Q13332).
T2 sequence (Q13332 1304-1948): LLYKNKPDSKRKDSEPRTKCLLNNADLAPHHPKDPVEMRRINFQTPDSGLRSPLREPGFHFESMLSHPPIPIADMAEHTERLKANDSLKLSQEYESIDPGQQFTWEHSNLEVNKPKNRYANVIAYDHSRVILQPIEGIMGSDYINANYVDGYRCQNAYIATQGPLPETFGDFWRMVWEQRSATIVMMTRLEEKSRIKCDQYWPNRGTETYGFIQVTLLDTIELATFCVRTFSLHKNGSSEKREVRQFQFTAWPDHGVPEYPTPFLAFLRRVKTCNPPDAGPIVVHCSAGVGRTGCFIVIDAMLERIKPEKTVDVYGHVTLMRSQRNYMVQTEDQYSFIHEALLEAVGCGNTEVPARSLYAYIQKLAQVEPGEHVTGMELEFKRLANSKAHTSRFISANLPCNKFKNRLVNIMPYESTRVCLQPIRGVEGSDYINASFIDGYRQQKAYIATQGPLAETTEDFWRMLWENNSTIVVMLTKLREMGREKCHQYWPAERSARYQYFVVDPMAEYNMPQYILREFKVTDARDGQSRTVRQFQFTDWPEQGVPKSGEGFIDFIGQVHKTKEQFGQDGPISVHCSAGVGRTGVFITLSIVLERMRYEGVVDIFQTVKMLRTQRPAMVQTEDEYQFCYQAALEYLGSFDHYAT
The experiment in a line: PTP selectivity assay with DiFMUP substrate.

For the next data set, the target named is mouse PTPRB (Mus musculus, UniProt B2RU80). The experiment in a line: PTP selectivity assay with DiFMUP substrate.
Chain of mouse PTPRB (B2RU80 1644-1997 limits assumed): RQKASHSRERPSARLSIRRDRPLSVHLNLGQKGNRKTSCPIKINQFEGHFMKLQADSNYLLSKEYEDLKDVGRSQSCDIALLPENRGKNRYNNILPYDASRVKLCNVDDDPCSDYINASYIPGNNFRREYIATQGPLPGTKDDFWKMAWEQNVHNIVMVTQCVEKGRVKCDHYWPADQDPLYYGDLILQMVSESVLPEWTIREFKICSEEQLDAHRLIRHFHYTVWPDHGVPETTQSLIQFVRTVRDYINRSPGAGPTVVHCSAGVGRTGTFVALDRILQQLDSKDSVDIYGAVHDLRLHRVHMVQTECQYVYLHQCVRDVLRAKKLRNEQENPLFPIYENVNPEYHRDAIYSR
For another data set, the target named is T3, human PTPN6 (Homo sapiens, UniProt P29350).
T3 sequence (P29350 220-523): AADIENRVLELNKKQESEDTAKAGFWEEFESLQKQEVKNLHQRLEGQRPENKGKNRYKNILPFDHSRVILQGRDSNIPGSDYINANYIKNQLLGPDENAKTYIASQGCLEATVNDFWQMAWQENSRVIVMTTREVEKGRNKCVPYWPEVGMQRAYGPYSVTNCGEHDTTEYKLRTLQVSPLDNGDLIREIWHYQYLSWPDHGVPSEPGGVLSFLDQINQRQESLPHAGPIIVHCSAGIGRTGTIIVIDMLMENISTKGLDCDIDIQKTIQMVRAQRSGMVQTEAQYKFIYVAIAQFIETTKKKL
Kind of data set: PTP selectivity assay with DiFMUP substrate.

In a further data set the target is T4, human PTPN1 (Homo sapiens, UniProt P18031).
T4 sequence (P18031 1-321): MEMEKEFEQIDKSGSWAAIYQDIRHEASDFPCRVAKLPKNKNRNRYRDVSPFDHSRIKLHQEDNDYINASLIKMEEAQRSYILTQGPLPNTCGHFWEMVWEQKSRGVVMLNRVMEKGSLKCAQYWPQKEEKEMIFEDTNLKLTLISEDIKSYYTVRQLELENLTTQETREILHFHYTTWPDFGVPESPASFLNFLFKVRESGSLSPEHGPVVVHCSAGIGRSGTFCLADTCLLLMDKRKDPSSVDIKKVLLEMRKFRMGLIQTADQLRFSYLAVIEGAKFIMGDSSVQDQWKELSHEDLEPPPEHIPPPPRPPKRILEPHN
The experiment in a line: PTP selectivity assay with DiFMUP substrate.

Data set [6] concerns the target T1, PTPRZ-ICR. Kind of data set: Hydrolysis of pCAP-GIT1_549–556 by human PTPRZ-ICR, IC50 and kinetic analysis.
Description: (§1) Human PTPRZ-ICR (0.1 nM) was added to the substrate solution (closed arrowheads), and was followed by the addition of test compounds at the indicated concentrations (open arrowheads). The slope of the fluorescence signal during the 40 s before and after the addition of a compound was measured, and the inhibitory effects of each compound were determined by the ratio of the two. […] The inhibition assay was performed with 20 μM DiFMUP, a non-specific PTP substrate.
(§2) min with 1 M Tris HCl, pH 9.2 (20 µl). The final concentrations of compounds, the
(§3) pCAP substrate, and DMSO were 10 µg/ml, 20 µM, and 1% (v/v), respectively.
(§4) Fluorescence was measured at excitation/emission wavelengths of 380/460 nm
(§5) using an EnVision Multilabel Reader (PerkinElmer). A decrease of more than
(§6) 40% in the signal intensity against the DMSO control was considered to be a
(§7) potential hit, and reproducibility was examined with a freshly prepared stock.
(§8) three-component buffer at pH 7.0 using a 384-well plate. The reaction was […]
(§9) calculated by nonlinear regression (JMP software, SAS Institute). […]
(§10) type was analyzed by a Lineweaver-Burk plot according to Michaelis-Menten […]
(§11) was continuously monitored for ~100 s as an increase in fluorescence at 455 nm […]
(§12) measured the slope of the linear increase of the fluorescence signal as an indicator
(§13) of catalytic activity. IC50 values were determined as above.

Chain of PTPRZ-ICR N1758D mutant (P23471 1698-2308 isoform P23471-2 N1751D limits assumed): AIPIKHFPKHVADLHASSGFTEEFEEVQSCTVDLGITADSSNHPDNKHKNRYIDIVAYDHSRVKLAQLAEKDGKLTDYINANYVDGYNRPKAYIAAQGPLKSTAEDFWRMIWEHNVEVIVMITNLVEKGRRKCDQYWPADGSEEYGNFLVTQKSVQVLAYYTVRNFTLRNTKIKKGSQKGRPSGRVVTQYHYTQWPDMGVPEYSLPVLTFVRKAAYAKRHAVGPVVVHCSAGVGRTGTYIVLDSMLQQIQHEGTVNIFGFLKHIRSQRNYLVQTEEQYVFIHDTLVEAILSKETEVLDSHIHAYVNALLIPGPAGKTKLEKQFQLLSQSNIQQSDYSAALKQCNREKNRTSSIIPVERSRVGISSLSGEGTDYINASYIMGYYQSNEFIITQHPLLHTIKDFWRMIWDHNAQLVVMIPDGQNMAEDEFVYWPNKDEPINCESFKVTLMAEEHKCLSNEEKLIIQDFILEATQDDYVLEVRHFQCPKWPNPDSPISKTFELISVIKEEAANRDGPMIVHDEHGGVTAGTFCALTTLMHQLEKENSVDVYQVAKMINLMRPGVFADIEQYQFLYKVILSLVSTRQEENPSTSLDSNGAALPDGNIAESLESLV
Chain of PTPRZ-ICR Y1756F mutant (P23471 1698-2308 isoform P23471-2 Y1749F limits assumed): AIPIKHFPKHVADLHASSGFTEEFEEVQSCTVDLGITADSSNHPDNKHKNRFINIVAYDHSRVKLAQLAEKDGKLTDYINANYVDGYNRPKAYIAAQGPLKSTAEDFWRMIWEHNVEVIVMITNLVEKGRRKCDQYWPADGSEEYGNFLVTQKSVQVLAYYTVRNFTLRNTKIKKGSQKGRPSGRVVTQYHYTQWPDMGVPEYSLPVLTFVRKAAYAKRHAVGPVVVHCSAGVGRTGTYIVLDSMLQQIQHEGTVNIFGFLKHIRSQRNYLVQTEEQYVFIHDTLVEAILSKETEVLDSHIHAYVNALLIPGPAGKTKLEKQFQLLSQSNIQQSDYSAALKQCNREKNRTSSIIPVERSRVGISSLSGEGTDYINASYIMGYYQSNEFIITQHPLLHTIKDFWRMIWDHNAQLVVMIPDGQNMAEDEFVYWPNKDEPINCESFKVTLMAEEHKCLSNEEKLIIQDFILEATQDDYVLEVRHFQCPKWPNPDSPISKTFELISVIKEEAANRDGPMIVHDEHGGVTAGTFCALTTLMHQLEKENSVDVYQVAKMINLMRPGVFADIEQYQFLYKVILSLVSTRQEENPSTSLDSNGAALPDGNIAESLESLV
Chain of human PTPRM (P28827 765-1452): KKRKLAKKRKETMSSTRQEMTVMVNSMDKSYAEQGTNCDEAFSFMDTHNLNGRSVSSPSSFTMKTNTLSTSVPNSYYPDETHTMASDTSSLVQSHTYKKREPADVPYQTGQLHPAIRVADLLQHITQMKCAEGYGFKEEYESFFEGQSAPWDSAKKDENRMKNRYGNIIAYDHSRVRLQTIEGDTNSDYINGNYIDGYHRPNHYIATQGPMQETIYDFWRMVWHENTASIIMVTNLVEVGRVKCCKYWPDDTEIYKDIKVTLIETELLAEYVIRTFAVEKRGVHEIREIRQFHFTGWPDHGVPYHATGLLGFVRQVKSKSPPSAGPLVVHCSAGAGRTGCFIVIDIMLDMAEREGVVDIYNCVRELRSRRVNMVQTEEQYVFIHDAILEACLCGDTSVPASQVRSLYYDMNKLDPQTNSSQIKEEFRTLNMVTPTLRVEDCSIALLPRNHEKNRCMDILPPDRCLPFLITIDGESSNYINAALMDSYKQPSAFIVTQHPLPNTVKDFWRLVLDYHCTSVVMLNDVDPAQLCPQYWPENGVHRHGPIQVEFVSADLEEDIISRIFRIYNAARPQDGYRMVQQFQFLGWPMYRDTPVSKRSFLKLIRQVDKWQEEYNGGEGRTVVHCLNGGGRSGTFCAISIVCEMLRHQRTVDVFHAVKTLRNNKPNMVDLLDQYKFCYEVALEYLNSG
Chain of PTPRZ (P23471 1698-2308 isoform P23471-2 limits assumed, stated change not applied): as the sequence (P23471 1698-2308 isoform P23471-2 limits assumed, stated change not applied) above
Description for PTPRZ-ICR N1758D mutant: (G) Inhibitor sensitivity.
(§14) Two hundred microliters of pCAP-peptide substrates (20 μM) in a three-component buffer of pH 7.0 (100 mM acetate, 50 mM Tris, and 50 mM Bis-Tris) containing 5 mM DTT and 0.01% (v/v) Brij-35 were preincubated in a cuvette at room temperature. The reaction was initiated by adding 2 μl of an enzyme solution, and incubated for ~100 s; the amount of the enzyme was adjusted to give a convenient rate. Compounds were then added to the same cuvette at a 1/100 volume. In each experiment, the hydrolysis of the pCAP residue was continuously monitored as an increase in fluorescence at 460 nm (excitation at 334 nm) using a spectrofluorometer (FI-4500, Hitachi). We measured the slope of the linear increase of the fluorescence signal as an indicator of catalytic activity, which was obtained during the 40 s before and after the addition of a compound. The inhibitory effects of each compound were determined by the ratio of the activities, and indicated as the relative value to that of DMSO control.
(§15) respective full-length clones, and the cDNA fragments were fused in frame to the
(§16) coding sequence of glutathione S-transferase (GST) of the Escherichia coli (E. coli)
(§17) expression vector, pGEX-6P (GE Healthcare).
(§18) point mutants, pGEX-6P-PTPRZ-ICR was used as a template with a Quikchange
(§19) multisite-directed mutagenesis kit (Stratagene).
Description for PTPRZ-ICR Y1756F mutant: (G) Inhibitor sensitivity.
as §14, §15, §16, §17, §18, §19
Description for human PTPN1: as §1, §3, §4
(§20) using an EnVision Multilabel Reader (PerkinElmer).
(§21) calculated by nonlinear regression (JMP software, SAS Institute).
(§22) type was analyzed by a Lineweaver-Burk plot according to Michaelis-Menten
(§23) BSA, 5 mM DTT and 0.01% Brij-35) with DiFMUP
(§24) (6,8-difluoro-4-methylumbiliferyl phosphate, Molecular probe) as a nonspecific PTP
(§25) substrate. One hundred microliters of 40 µM DiFMUP were preincubated in a
cuvette at room temperature.
(§26) In each experiment, the hydrolysis of DiFMUP
(§27) was continuously monitored for ~100 s as an increase in fluorescence at 455 nm
(§28) (excitation at 358 nm) using a spectrofluorometer (FI-4500, Hitachi). We
as §12, §13
Description for human PTPN6: as §1, §3, §4, §20, §21, §22, §23, §24, §25
cuvette at room temperature.
as §26, §27, §28, §12, §13
Description for human PTPRA: as §1, §2, §3, §4, §5, §6, §7, §8, §9, §10, §11, §12, §13
Description for human PTPRG: as §1, §2, §3, §4, §5, §6, §7, §8, §9, §10, §11, §12, §13
Description for human PTPRM: as §1, §2, §3, §4, §5, §6, §7, §8, §9, §10, §11, §12, §13
Description for human PTPRS: as §1, §3, §4, §20, §21, §22, §23, §24, §25
cuvette at room temperature.
as §26, §27, §28, §12, §13
Description for mouse PTPRB: as §1, §3, §4, §20, §21, §22, §23, §24, §25
cuvette at room temperature.
as §26, §27, §28, §12, §13

For `O=S(=O)([O-])c1ccc2c(N=Nc3ccc(S(=O)(=O)[O-])c4ccccc34)c(O)ccc2c1.[Na+].[Na+]` [compound 3, disodium 6-hydroxy-5-[(4-sulfonato-1-naphthyl)diazenyl]-2-naphthalene sulfonate], the “Inhibitor sensitivity of N1758D mutant versus wild-type enzyme” value on PTPRZ-ICR N1758D mutant is listed as “no changes in sensitivity”. For the same molecule, the “Binding to PTPRZ-ICR by native MS” value at PTPRZ-ICR [1] is on record as “no binding activity”.
As to `O=S(=O)([O-])c1ccc2cc(O)c(S(=O)(=O)[O-])cc2c1.[Na+].[Na+]` [compound 8, disodium 3-hydroxy-2,7-naphthalenedisulfonate], the “Inhibitory effect on hydrolysis of pCAP-GIT1_549–556 (residual enzymatic activity relative to DMSO control)” value at PTPRZ-ICR [2] is on record as “no inhibition”.
Regarding `Nc1ccc(S(=O)(=O)O)c2ccccc12` [compound 9, 4-amino-1-naphthalenesulfonic acid], the “Inhibitory effect on hydrolysis of pCAP-GIT1_549–556 (residual enzymatic activity relative to DMSO control)” value at PTPRZ-ICR [2] was “no inhibition”.
Consider `O=S(=O)([O-])c1cc(S(=O)(=O)[O-])c2c(N=Nc3ccc(S(=O)(=O)[O-])c4ccccc34)c(O)ccc2c1.[Na+].[Na+].[Na+]` [compound 2, trisodium 7-hydroxy-8-[(4-sulfonato-1-naphthyl)diazenyl]-1,3-naphthalenedisulfonate], for which the “Proliferation of C6 glioblastoma cells (increase in cell number in 24 h)” value in the data set with C6 glioblastoma cells is given as “did not show suppressive effects”. The “Binding to PTPRZ-ICR by native MS” value at PTPRZ-ICR [1] was “no binding activity”. The “Inhibitory effect on hydrolysis of pCAP-GIT1_549–556 (residual enzymatic activity relative to DMSO control)” value at PTPRZ-ICR [2] is recorded as “almost no inhibition”.
For `O=Nc1c(O)c(S(=O)(=O)O)cc2cc(S(=O)(=O)O)ccc12` [compound 7, disodium 1-nitroso-2-naphthol-3,6-disulfonate monohydrate], on PTPRZ-ICR [2], the “Inhibitory effect on hydrolysis of pCAP-GIT1_549–556 (residual enzymatic activity relative to DMSO control)” value was “no inhibition”.
Regarding `O=S(=O)([O-])c1ccc2c(N=Nc3cccc4ccccc34)c(O)c(S(=O)(=O)[O-])cc2c1.[Na+].[Na+]` [compound 5, disodium 3-hydroxy-4-(1-naphthyldiazenyl)-2,7-naphthalenedisulfonate], the “Inhibitor sensitivity of N1758D mutant versus wild-type enzyme” value on PTPRZ-ICR N1758D mutant is “resistant to inhibition”. For the same molecule, the “Inhibitory effect on hydrolysis of pCAP-GIT1_549–556 (residual enzymatic activity relative to DMSO control)” value at PTPRZ-ICR [2] is given as “markedly abolished inhibitory activity”; at PTPRZ-ICR [2] (listed as Compound 5), “weakly inhibited”.
As to `[O]=[V]([O-])([O-])[O-]` [vanadate, reference compound], the “Inhibitor sensitivity of Y1756F mutant versus wild-type enzyme” value on PTPRZ-ICR Y1756F mutant is “not by vanadate”.
For `O=S(=O)([O-])c1ccc(N=Nc2c(O)ccc3ccccc23)c2ccccc12.[Na+]` [compound 4, sodium 4-(2-hydroxy-1-naphthalenylazo)-1-naphthalenesulfonate], the “Inhibitor sensitivity of N1758D mutant versus wild-type enzyme” value at PTPRZ-ICR N1758D mutant was “no changes in sensitivity”.
Take `O=S(=O)(O)c1cccc2ccccc12` [compound 10, sodium 1-naphthalenesulfonate]: the “Inhibitory effect on hydrolysis of pCAP-GIT1_549–556 (residual enzymatic activity relative to DMSO control)” value on PTPRZ-ICR [2] is reported as “no inhibition”.
Consider `O=S(=O)([O-])c1ccc2c(N=Nc3ccc(S(=O)(=O)[O-])c4ccccc34)c(O)c(S(=O)(=O)[O-])cc2c1.[Na+].[Na+].[Na+]` [SCB4380, trisodium 3-hydroxy-4-[(4-sulfonato-1-naphthyl)diazenyl]-2,7-naphthalenedisulfonate], for which the Membrane permeability entry in data set [3] is “deficient and low”. Also, the half-life in data set [4] is approximately 50 min. Further, the “Stability in living cells” value in the data set on C6 cells is listed as “substantial instability”. In addition, at PTPRZ-ICR [5], the Kd is 1.23 µM. For the same molecule, the “ΔH (enthalpy change, ITC)” value on PTPRZ-ICR [5] (298.15 K, pH 7.5) was -14 kcal/mol. Also, the IC50 is 0.4 µM against PTPRZ; 0.4 µM at human PTPRG; 75.7 µM against human PTPRA; 60.7 µM at human PTPRM; 14.8 µM at human PTPRS; 73.8 µM on mouse PTPRB. For the same molecule, the IC50 was 24.6 µM against human PTPN6, 19.5 µM at human PTPN1 and 0.4 µM against PTPRZ-ICR [6]. Moreover, the “Inhibitor sensitivity of N1758D mutant versus wild-type enzyme” value on PTPRZ-ICR N1758D mutant is recorded as “resistant to inhibition”. Also, the “Inhibitor sensitivity of Y1756F mutant versus wild-type enzyme” value on PTPRZ-ICR Y1756F mutant is reported as “impaired the inhibition by SCB4380 markedly”. For the same molecule, at PTPRZ-ICR [1], the “Binding to PTPRZ-ICR by native MS” value is “bound to Z-ICR in a one-to-one stoichiometry”. Moreover, the “Inhibition type by Lineweaver-Burk plot analysis” value at PTPRZ-ICR [6] (human PTPRZ-ICR, pCAP-peptide substrate) is reported as “competitive”.
As to `O=[N+]([O-])c1ccc(N=Nc2c(O)c(S(=O)(=O)[O-])cc3cc(S(=O)(=O)[O-])ccc23)cc1.[Na+].[Na+]` [compound 6, sodium 3-hydroxy-4-[(4-nitrophenyl)diazenyl]-2,7-naphthalenedisulfonate], the “Inhibitory effect on hydrolysis of pCAP-GIT1_549–556 (residual enzymatic activity relative to DMSO control)” value at PTPRZ-ICR [2] is reported as “markedly abolished inhibitory activity; also recorded: weakly inhibited”.

A word on the half-life: it is the time in which the quantity being followed falls by half. The Kd is the concentration at which binding is half-saturated. A lower Kd goes with higher affinity. As a reminder, the IC50 is the concentration that inhibits the measured activity by half. A high value points to lower potency.
